Reference: ChEMBL document CHEMBL1201861, “Genomics of Drug Sensitity in Cancer screening data, Wellcome Trust Sanger Institute”
Blank lines part the entries; values can stand above or below the compound they belong to.

Legend:
Assay in all cases: cells
[1] = test system: HEL; format: functional, cell-based, Homo sapiens; settings: Homo sapiens, HEL;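 also: growth inhibition of HEL cells, read out with a cell viability assay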
Description: SANGER: Inhibition of human HEL cell growth in a cell viability assay.

[2] = test system: HCE-T; format: functional, cell-based, Homo sapiens; settings: Homo sapiens, HCE-T;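 also: cell viability assay read-out, reporting inhibition of HCE-T cell growth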
Description: SANGER: Inhibition of human HCE-T cell growth in a cell viability assay.

[3] = test system: LNCaP-Clone-FGC; format: functional, cell-based, Homo sapiens; settings: Homo sapiens, LNCaP-Clone-FGC
Description: SANGER: Inhibition of human LNCaP-Clone-FGC cell growth in a cell viability assay.

[4] = test system: KARPAS-45; format: functional, cell-based, Homo sapiens; settings: Homo sapiens, KARPAS-45;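 also: inhibition of cell line growth, read out through a viability assay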
Description: SANGER: Inhibition of human KARPAS-45 cell growth in a cell viability assay.

[5] = test system: SK-N-DZ; format: functional, cell-based, Homo sapiens; settings: Homo sapiens, SK-N-DZ;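 also: growth inhibition of the cancer cell line, read out through a viability assay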
Description: SANGER: Inhibition of human SK-N-DZ cell growth in a cell viability assay.

[6] = test system: D283 Med; format: functional, cell-based, Homo sapiens; settings: Homo sapiens, D283 Med
Description: SANGER: Inhibition of human D-283MED cell growth in a cell viability assay.

[7] = test system: EW-11; format: functional, cell-based, Homo sapiens; settings: Homo sapiens, EW-11;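 also: growth inhibition of human EW-11 cells, measured with a cell viability assay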
Description: SANGER: Inhibition of human EW-11 cell growth in a cell viability assay.

[8] = test system: U-266; format: functional, cell-based, Homo sapiens; settings: Homo sapiens, U-266
Description: SANGER: Inhibition of human U-266 cell growth in a cell viability assay.

[9] = test system: ES8; format: functional, cell-based, Homo sapiens; settings: Homo sapiens, ES8;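 also: growth inhibition of human ES8 cells, read out with a cell viability assay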
Description: SANGER: Inhibition of human ES8 cell growth in a cell viability assay.

[10] = test system: IA-LM; format: functional, cell-based, Homo sapiens; settings: Homo sapiens, IA-LM;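 also: cell viability assay measuring growth inhibition of human IA-LM cells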
Description: SANGER: Inhibition of human IA-LM cell growth in a cell viability assay.

[11] = test system: A388; format: functional, cell-based, Homo sapiens; settings: Homo sapiens, A388;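 also: growth inhibition of human A388 cells, read out with a cell viability assay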
Description: SANGER: Inhibition of human A388 cell growth in a cell viability assay.

[12] = test system: KM12; format: functional, cell-based, Homo sapiens; settings: Homo sapiens, KM12;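 also: KM12 cell growth inhibition, read out with a cell viability assay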
Description: SANGER: Inhibition of human KM12 cell growth in a cell viability assay.

[13] = test system: EW-3; format: functional, cell-based, Homo sapiens; settings: Homo sapiens, EW-3;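 also: cell viability assay read-out, IC50 reflects inhibition of growth of the EW-3 cells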
Description: SANGER: Inhibition of human EW-3 cell growth in a cell viability assay.

[14] = test system: SK-MEL-2; format: functional, cell-based, Homo sapiens; settings: Homo sapiens, SK-MEL-2;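 also: growth inhibition of human SK-MEL-2 cells measured with a cell viability assay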
Description: SANGER: Inhibition of human SK-MEL-2 cell growth in a cell viability assay.

[15] = test system: SK-N-FI; format: functional, cell-based, Homo sapiens; settings: Homo sapiens, SK-N-FI;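 also: cell viability assay measuring growth inhibition of human SK-N-FI cells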
Description: SANGER: Inhibition of human SK-N-FI cell growth in a cell viability assay.

[16] = test system: A4-Fuk; format: functional, cell-based, Homo sapiens; settings: Homo sapiens, A4-Fuk;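 also: growth inhibition of A4-Fuk cells, read out by a cell viability assay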
Description: SANGER: Inhibition of human A4-Fuk cell growth in a cell viability assay.

[17] = test system: DSH1; format: functional, cell-based, Homo sapiens; settings: Homo sapiens, DSH1;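 also: growth inhibition of human DSH1 cells, measured with a cell viability readout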
Description: SANGER: Inhibition of human DSH1 cell growth in a cell viability assay.

[18] = test system: TE-12; format: functional, cell-based, Homo sapiens; settings: Homo sapiens, TE-12;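 also: growth inhibition of TE-12 cells, read out by a cell viability assay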
Description: SANGER: Inhibition of human TE-12 cell growth in a cell viability assay.

[19] = test system: NOMO-1; format: functional, cell-based, Homo sapiens; settings: Homo sapiens, NOMO-1;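 also: growth inhibition of human NOMO-1 cells measured by a cell viability assay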
Description: SANGER: Inhibition of human NOMO-1 cell growth in a cell viability assay.

[20] = test system: U-87 MG; format: functional, cell-based, Homo sapiens, U-87MG ATCC; settings: Homo sapiens, U-87 MG;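 also: growth inhibition of the cells measured with a viability assay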
Description: SANGER: Inhibition of human U-87-MG cell growth in a cell viability assay.

[21] = test system: NCI-N87; format: functional, cell-based, Homo sapiens; settings: Homo sapiens, NCI-N87;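 also: growth inhibition of human NCI-N87 cells, read out with a cell viability assay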
Description: SANGER: Inhibition of human NCI-N87 cell growth in a cell viability assay.

[22] = test system: SHP77; format: functional, cell-based, Homo sapiens, SHP-77; settings: Homo sapiens, SHP77;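 also: growth inhibition of human SHP-77 cells measured by a cell viability assay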
Description: SANGER: Inhibition of human SHP-77 cell growth in a cell viability assay.

[23] = test system: SH-4; format: functional, cell-based, Homo sapiens; settings: Homo sapiens, SH-4;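 also: growth inhibition of SH-4 cells, read out with a cell viability assay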
Description: SANGER: Inhibition of human SH-4 cell growth in a cell viability assay.

[24] = test system: A498; format: functional, cell-based, Homo sapiens; settings: Homo sapiens, A498;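 also: growth inhibition of human A498 cells, read out with a cell viability assay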
Description: SANGER: Inhibition of human A498 cell growth in a cell viability assay.

[25] = test system: LC-2-ad; format: functional, cell-based, Homo sapiens; settings: Homo sapiens, LC-2-ad;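 also: growth inhibition of human LC-2-ad cells, read out with a cell viability assay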
Description: SANGER: Inhibition of human LC-2-ad cell growth in a cell viability assay.

[26] = test system: JVM-3; format: functional, cell-based, Homo sapiens; settings: Homo sapiens, JVM-3;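 also: growth inhibition of human JVM-3 cells, read out with a cell viability assay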
Description: SANGER: Inhibition of human JVM-3 cell growth in a cell viability assay.

[27] = test system: RH-1; format: functional, cell-based, Homo sapiens; settings: Homo sapiens, RH-1;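 also: growth inhibition of human RH-1 cells, read out with a cell viability assay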
Description: SANGER: Inhibition of human RH-1 cell growth in a cell viability assay.

[28] = test system: SK-UT-1; format: functional, cell-based, Homo sapiens; settings: Homo sapiens, SK-UT-1;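 also: growth inhibition of SK-UT-1 cells, measured by a cell viability assay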
Description: SANGER: Inhibition of human SK-UT-1 cell growth in a cell viability assay.

[29] = test system: MC116; format: functional, cell-based, Homo sapiens; settings: Homo sapiens, MC116;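 also: growth inhibition of MC116 cells, read out with a cell viability assay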
Description: SANGER: Inhibition of human MC116 cell growth in a cell viability assay.

[30] = test system: CCRF-CEM; format: functional, cell-based, Homo sapiens; settings: Homo sapiens, CCRF-CEM;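 also: inhibition of CCRF-CEM cell growth, measured by a cell viability assay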
Description: SANGER: Inhibition of human CCRF-CEM cell growth in a cell viability assay.

[31] = test system: KNS-81-FD; format: functional, cell-based, Homo sapiens; settings: Homo sapiens, KNS-81-FD;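 also: growth inhibition of KNS-81-FD cells, read out with a cell viability assay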
Description: SANGER: Inhibition of human KNS-81-FD cell growth in a cell viability assay.

[32] = test system: NCI-H526; format: functional, cell-based, Homo sapiens; settings: Homo sapiens, NCI-H526;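 also: growth inhibition of the human NCI-H526 cell line, measured by a cell viability assay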
Description: SANGER: Inhibition of human NCI-H526 cell growth in a cell viability assay.

[33] = test system: LU-134-A; format: functional, cell-based, Homo sapiens; settings: Homo sapiens, LU-134-A
Description: SANGER: Inhibition of human LU-134-A cell growth in a cell viability assay.

[34] = test system: TE-1; format: functional, cell-based, Homo sapiens; settings: Homo sapiens, TE-1;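 also: growth inhibition of the human TE-1 cell line, read out with a cell viability assay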
Description: SANGER: Inhibition of human TE-1 cell growth in a cell viability assay.

[35] = test system: BE-13; format: functional, cell-based, Homo sapiens; settings: Homo sapiens, BE-13;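 also: growth inhibition of human BE-13 cells, measured with a cell viability assay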
Description: SANGER: Inhibition of human BE-13 cell growth in a cell viability assay.

[36] = test system: ES3; format: functional, cell-based, Homo sapiens; settings: Homo sapiens, ES3;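 also: growth inhibition of ES3 cells, read out with a cell viability assay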
Description: SANGER: Inhibition of human ES3 cell growth in a cell viability assay.

[37] = test system: ACN; format: functional, cell-based, Homo sapiens; settings: Homo sapiens, ACN;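 also: growth inhibition of the human ACN cell line, read out via cell viability testing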
Description: SANGER: Inhibition of human ACN cell growth in a cell viability assay.

[38] = test system: IST-MEL1; format: functional, cell-based, Homo sapiens; settings: Homo sapiens, IST-MEL1;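 also: growth inhibition of the cell line, read out with a cell viability assay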
Description: SANGER: Inhibition of human IST-MEL1 cell growth in a cell viability assay.

[39] = test system: SW 954; format: functional, cell-based, Homo sapiens; settings: Homo sapiens, SW 954;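 also: growth inhibition of SW954 human cancer cells, read out as cell viability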
Description: SANGER: Inhibition of human SW954 cell growth in a cell viability assay.

[40] = test system: HCC2218; format: functional, cell-based, Homo sapiens; settings: Homo sapiens, HCC2218;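 also: cell viability assay read-out, with IC50 given as the concentration that inhibits growth of the cell line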
Description: SANGER: Inhibition of human HCC2218 cell growth in a cell viability assay.

[41] = test system: GB-1; format: functional, cell-based, Homo sapiens; settings: Homo sapiens, GB-1;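 also: growth of GB-1 cells judged by a viability assay, IC50 marks the concentration inhibiting growth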
Description: SANGER: Inhibition of human GB-1 cell growth in a cell viability assay.

[42] = test system: MEG-01; format: functional, cell-based, Homo sapiens; settings: Homo sapiens, MEG-01;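 also: growth inhibition of MEG-01 cells, read out by a cell viability assay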
Description: SANGER: Inhibition of human MEG-01 cell growth in a cell viability assay.

[43] = test system: GR-ST; format: functional, cell-based, Homo sapiens; settings: Homo sapiens, GR-ST
Description: SANGER: Inhibition of human GR-ST cell growth in a cell viability assay.

[44] = test system: NKM-1; format: functional, cell-based, Homo sapiens; settings: Homo sapiens, NKM-1;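 also: growth inhibition of NKM-1 cells, read out with a cell viability assay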
Description: SANGER: Inhibition of human NKM-1 cell growth in a cell viability assay.

[45] = test system: NCI-H23; format: functional, cell-based, Homo sapiens; settings: Homo sapiens, NCI-H23;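 also: cell viability assay measuring growth inhibition of NCI-H23 cells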
Description: SANGER: Inhibition of human NCI-H23 cell growth in a cell viability assay.

[46] = test system: NCI-H747; format: functional, cell-based, Homo sapiens; settings: Homo sapiens, NCI-H747;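 also: growth inhibition of human NCI-H747 cells, read out by a cell viability assay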
Description: SANGER: Inhibition of human NCI-H747 cell growth in a cell viability assay.

[47] = test system: COLO-668; format: functional, cell-based, Homo sapiens; settings: Homo sapiens, COLO-668
Description: SANGER: Inhibition of human COLO-668 cell growth in a cell viability assay.

[48] = test system: CP66-MEL; format: functional, cell-based, Homo sapiens; settings: Homo sapiens, CP66-MEL;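 also: growth inhibition of CP66-MEL cells determined in a cell viability assay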
Description: SANGER: Inhibition of human CP66-MEL cell growth in a cell viability assay.

SMILES: COc1cc2c(Nc3ccc(NC(=O)c4ccccc4)cc3)ncnc2cc1OCCCN1CCOCC1
IC50 [1]: > 4000 nM | IC50 [2]: > 4000 nM | IC50 [3]: > 4000 nM | IC50 [4]: 381 nM | IC50 [5]: > 4000 nM | IC50 [6]: > 4000 nM | IC50 [7]: > 4000 nM | IC50 [8]: 2840 nM | IC50 [9]: 498 nM | IC50 [10]: > 4000 nM | IC50 [11]: 3500 nM | IC50 [12]: > 4000 nM | IC50 [13]: > 4000 nM | IC50 [14]: > 4000 nM | IC50 [15]: > 4000 nM | IC50 [16]: 3770 nM | IC50 [17]: > 4000 nM | IC50 [18]: > 4000 nM | IC50 [19]: 1370 nM | IC50 [20]: > 4000 nM | IC50 [21]: > 4000 nM | IC50 [22]: > 4000 nM | IC50 [23]: > 4000 nM | IC50 [24]: 2370 nM | IC50 [25]: > 4000 nM | IC50 [26]: 2750 nM | IC50 [27]: > 4000 nM | IC50 [28]: 1820 nM | IC50 [29]: > 4000 nM | IC50 [30]: 1870 nM | IC50 [31]: > 4000 nM | IC50 [32]: > 4000 nM | IC50 [33]: > 4000 nM | IC50 [34]: > 4000 nM | IC50 [35]: 844 nM | IC50 [36]: 473 nM | IC50 [37]: > 4000 nM | IC50 [38]: > 4000 nM | IC50 [39]: 836 nM | IC50 [40]: > 4000 nM | IC50 [41]: > 4000 nM | IC50 [42]: > 4000 nM | IC50 [43]: > 4000 nM | IC50 [44]: 1170 nM | IC50 [45]: > 4000 nM | IC50 [46]: 2030 nM | IC50 [47]: > 4000 nM

IC50 [1]: 522 nM | IC50 [2]: 231 nM | IC50 [3]: 535 nM | IC50 [5]: 207 nM | IC50 [6]: 284 nM | IC50 [7]: 434 nM | IC50 [9]: 119 nM | IC50 [10]: 1560 nM | IC50 [11]: 167 nM | IC50 [12]: 1880 nM | IC50 [14]: 230 nM | IC50 [15]: 328 nM | IC50 [17]: 517 nM | IC50 [20]: 82.2 nM | IC50 [21]: 2200 nM | IC50 [22]: 451 nM | IC50 [23]: 227 nM | IC50 [24]: 1490 nM | IC50 [25]: 424 nM | IC50 [27]: 158 nM | IC50 [28]: 28.7 nM | IC50 [31]: 248 nM | IC50 [34]: 957 nM | IC50 [36]: 359 nM | IC50 [37]: 696 nM | IC50 [48]: 1200 nM | IC50 [38]: 228 nM | IC50 [39]: 467 nM | IC50 [41]: 98.7 nM | IC50 [45]: 348 nM | IC50 [46]: 130 nM | IC50 [47]: 5100 nM
SMILES: CC(C)c1ccccc1Cc1cc(C(=O)Nc2ccc(S(=O)(=O)c3ccccc3C(C)(C)C)cc2)c(O)c(O)c1O
